Source: patent US7528274B2, “Acylthiols and component thiol compositions as anti-HIV and anti-retroviral agents” (The United States of America as represented by the …, priority 2001, dated 2009)
Where two headings read alike, the source gives them in different places.

Experiments:
HIV-1RF = assay: XTT cytoprotection assay, CEM-SS cells infected with HIV-1RF; type: cell-based; details: for EC50: read-out: EC50 (50% cytoprotection)
Description: (§1) One exemplary means to determine antiviral activity is with CEM-SS cells and virus (e.g., HIV-1RF) (MOI=0.01) using the XTT (2,3-bis[2-methoxy-4-nitro-5-sulfophenyl]-5-[(phenylamino)carbonyl]-2H-tetrazolium hydroxide) cytoprotection assay, as described by Rice (1993) PNAS 90:9721-9724, and Rice (1997) Antimicrob. Agents Chemother. […] Briefly, cells are infected with HIV-1RF (or other virus to be tested) in the presence of various dilutions of test compounds or control compounds. The cultures are incubated for seven days. […] The cell death is measured by XTT dye reduction. XTT is a soluble tetrazolium dye that measures mitochondrial energy output, similar to MTT. […] Individual assays are done in duplicate using a sister plate method.
as §1, with “{2,3-bis[2-methoxy-4-nitro-5-sulfophenyl]-5- -[(phenylamino)carbonyl]-2H-tetrazolium hydroxide}” for “(2,3-bis[2-methoxy-4-nitro-5-sulfophenyl]-5-[(phenylamino)carbonyl]-2H-tetrazolium hydroxide)”, “Proc. Natl. Acad. Sci. USA 90: 9721-9724,” for “PNAS 90:9721-9724,”, “Agents &” for “Agents”, “and controls.” for “or control compounds.”, “method. […] Compound numbers therein refer to the numbers used in FIG. 1.” for “method.”

[1] = XTT assay, cytotoxicity (cellular growth inhibition) in CEM-SS cells; type: cell-based; details: human
Description: as §1
as §1, with “{2,3-bis[2-methoxy-4-nitro-5-sulfophenyl]-5- -[(phenylamino)carbonyl]-2H-tetrazolium hydroxide}” for “(2,3-bis[2-methoxy-4-nitro-5-sulfophenyl]-5-[(phenylamino)carbonyl]-2H-tetrazolium hydroxide)”, “Proc. Natl. Acad. Sci. USA 90: 9721-9724,” for “PNAS 90:9721-9724,”, “Agents &” for “Agents”, “and controls.” for “or control compounds.”, “method. […] Compound numbers therein refer to the numbers used in FIG. 1.” for “method.”

[2] = Human immunodeficiency virus 1, 168 h, HIV-1RF, CEM-SS cells, seven days, XTT
[3] = Human immunodeficiency virus 1, CEM-SS, 168 h

Compound	EC50 (HIV-1RF; [2]) [µM]	EC50 (HIV-1RF; HIV-1RF, CEM-SS cells, seven days, XTT) [µM]	Therapeutic Index (HIV-1RF; HIV-1RF, CEM-SS cells)	IC50 at 7 days [1] [µM]	EC50 (HIV-1RF; [3]) [µM]
CSC(=N)Sc1ccccc1C(=O)N[C@@H](C)C(N)=O [Compound 136]	0.7	–	28.6	20	–
C[C@@H](NC(=O)c1ccccc1SC(=O)OCCBr)C(N)=O [Compound 103]	3.34	–	76	254	–
C[C@H](NC(=O)c1ccccc1SC(=O)NCCCCl)C(N)=O [Compound 86]	0.8	–	140	112	–
CCOC(=O)CNC(=O)Sc1ccccc1C(=O)N[C@@H](C)C(N)=O [Compound 116]	0.53	–	147	77.6	–
CC(C)(C)NC(=O)Sc1ccccc1C(=O)NCC(N)=O [Compound 142]	6.9	–	2.9	20	–
COc1cccc(C(=O)Sc2ccccc2C(=O)NCCC(N)=O)c1 [Compound 14]	2.6	–	251	666	–
NS(=O)(=O)c1ccc(CNC(=O)c2ccccc2SC(=O)OCCCCCl)cc1 [Compound 84]	2.36	–	27	64.4	–
CC(C)(C)C(=O)Sc1cccc(C(=O)NCCC(N)=O)c1 [Compound 17]	> 100	–	–	112	–
C[C@H](NC(=O)c1ccccc1SC(=O)OCCBr)C(N)=O [Compound 104]	1.16	–	160	186	–
COc1cc(C(=O)Sc2ccccc2C(=O)NCCC(N)=O)cc(OC)c1OC [Compound 10]	3.8	–	>53	> 200	–
NC(=O)CNC(=O)c1ccccc1SC(=O)NCCCCl [Compound 85]	0.72	–	153	110	–
CSC(=N)Sc1ccccc1C(=O)NCC(N)=O [Compound 138]	0.63	–	31.7	20	–
C[C@H](NC(=O)c1ccccc1SC(=O)NCCBr)C(N)=O [Compound 112]	–	–	5	5.2	1.05
CCC(C)C(NC(=O)c1ccccc1SC(=O)OCCCCCl)C(N)=O (stereo not shown) [Compound 83]	2.16	–	59	128	–
NC(=O)CCNC(=O)c1ccc(Cl)cc1SC(=O)c1cccnc1 [Compound 25]	31.8	–	18	573	–
CC(C)COC(=O)Sc1ccccc1C(=O)N[C@H](C)C(N)=O [Compound 77]	1.37	–	168	230	–
CCCCNC(=O)Sc1ccccc1C(=O)NCCC(N)=O [Compound 118]	0.53	–	74	38.7	–
CCCNC(=O)Sc1ccccc1C(=O)N[C@@H](C)C(N)=O [Compound 96]	1.32	–	21	27.5	–
Cc1ccc(C(=O)Sc2ccccc2C(=O)NCCC(N)=O)cc1 [Compound 21]	5.2	–	38	197	–
CCNC(=O)Sc1ccccc1C(=O)NCCC(N)=O [Compound 113]	0.69	–	148	103	–
CC(C)COC(=O)Sc1ccc(Cl)cc1C(=O)NCCC(N)=O [Compound 141]	1.13	–	17.7	20	–
C[C@@H](NC(=O)c1ccccc1SC(=O)NCCBr)C(N)=O [Compound 89]	–	–	8.7	8	0.92
Cc1cccc(C(=O)Sc2ccccc2C(=O)NCCC(N)=O)c1 [Compound 20]	3.6	–	38	135	–
C[C@@H](NC(=O)c1ccccc1SC(=O)OCCCCCl)C(N)=O [Compound 82]	2.94	–	68	200	–
NC(=O)CNC(=O)c1ccccc1SC(=O)OCCBr [Compound 101]	1.36	–	232	> 316	–
CCCNC(=O)Sc1ccccc1C(=O)N[C@H](C)C(N)=O [Compound 95]	0.85	–	27	22.6	–
NC(=O)C1CN1C(=O)c1ccccc1SC(=O)NC1CCCC1 (stereo not shown) [Compound 132]	–	0.81	–	–	–
Cc1cc(C)c(C(=O)Sc2ccccc2C(=O)NCCC(N)=O)c(C)c1 [Compound 24]	–	–	–	> 200	–

Further molecules by falling EC50 (HIV-1RF; [2]), results first:

EC50 (HIV-1RF; [2]) [µM]	EC50 (HIV-1RF; HIV-1RF, CEM-SS cells, seven days, XTT) [µM]	Compound	Therapeutic Index (HIV-1RF; HIV-1RF, CEM-SS cells)	IC50 at 7 days [1] [µM]	EC50 (HIV-1RF; [3]) [µM]
304	–	CCCCNC(=O)Sc1ccccc1C(=O)NCCS(N)(=O)=O [Compound 130]	0.12	37	–
149	–	NC(=O)CCNC(=O)c1cccc(SC(=O)c2cccnc2)c1 [Compound 18]	>6.7	> 1000	–
3.7	–	COc1ccc(C(=O)Sc2ccccc2C(=O)NCCC(N)=O)cc1 [Compound 13]	11	42	–
3.3	–	NC(=O)CCNC(=O)c1ccccc1SC(=O)c1ccccc1 [Compound 8]	205	676	–
3.07	–	NC(=O)CNC(=O)c1ccccc1SC(=O)OCCCCCl [Compound 80]	65	200	–
2.9	–	NC(=O)CCNC(=O)c1ccccc1SC(=O)c1cccnc1 [Compound 19]	161	461	–
2.07	–	C[C@H](NC(=O)c1ccccc1SC(=O)OCCCCCl)C(N)=O [Compound 81]	97	200	–
1.6	–	CC(C)(C)NC(=O)Sc1ccc(Cl)cc1C(=O)NCCC(N)=O [Compound 140]	7.1	11.3	–
1.58	–	NS(=O)(=O)c1ccc(CNC(=O)c2ccccc2SC(=O)Oc2ccc([N+](=O)[O-])cc2)cc1 [Compound 78]	36	57	–
0.76	–	CCCCCCNC(=O)Sc1ccccc1C(=O)N[C@H](C)C(N)=O [Compound 121]	107	81	–
0.71	–	C[C@@H](NC(=O)c1ccccc1SC(=O)NCCCCl)C(N)=O [Compound 87]	16	11.4	–
0.71	–	CSC(=N)Sc1ccccc1C(=O)NCCC(N)=O [Compound 137]	28.2	20	–
0.55	–	CCCNC(=O)Sc1ccccc1C(=O)NCCC(N)=O [Compound 97]	53	29	–
0.53	–	CSC(=N)Sc1ccccc1C(=O)N[C@H](C)C(N)=O [Compound 139]	37.7	20	–
0.51	–	CCCCNC(=O)Sc1ccccc1C(=O)N[C@H](C)C(N)=O [Compound 117]	64	32.2	–
0.42	–	CCNC(=O)Sc1ccccc1C(=O)N[C@H](C)C(N)=O [Compound 114]	203	86	–
0.3	–	CCCCCNC(=O)Sc1ccccc1C(=O)N[C@H](C)C(N)=O [Compound 119]	179	54.4	–
